In patent US20090227559A1, “SNPS IN THE APOB GENE AND SUSCEPTIBILITY TO INCREASED LEVELS OF ALAT FOLLOWING XIMELAGATRAN ADMINISTRATION” (AstraZeneca AB, priority 2005, published 2009):

Experiment: Clinical trials, longer-term ximelagatran treatment: ALAT elevation in patients
Assay type: in vivo, human
Source text: Alanine aminotransferase (ALAT) is an enzyme mostly expressed in the liver (EC 2.6.1.2). It is also called serum glutamate pyruvate transaminase (SGPT) or alanine transaminase (ALT). This enzyme is release into the plasma by liver cell death, which is a normal event. However, when liver cell death increases, ALAT levels rise above the normal range. The spillover of this enzyme into blood is routinely measured as a marker of abnormal liver-cell damage. For example, alcoholic or viral hepatitis will increase ALAT levels, as will severe congestive heart failure. ALAT is also markedly raised in hepatitis and other acute liver damage. An elevated ALAT in the presence of normal levels of plasma alkaline phosphatase helps distinguish liver disease caused by liver-cell damage from diseases caused by problems in biliary ducts. Elevations of ALAT are normally measured in multiples of the upper limit of normal (ULN), with a reference range of 15-45 U/L in most laboratories. In 1987, in a study of 19,877 healthy Air Force recruits, only 99 (0.5%) had confirmed ALAT elevations (as reviewed in Green & Flamm (2002) Gastroenterology 123:1367-1384).
Subject to the future regulatory approval of ximelagatran, regular liver function testing (LFT) using an appropriate algorithm may be required if ximelagatran is used for treatment periods exceeding a month. Studies are currently ongoing to try and establish the mechanism of the ALAT elevations, and their hepatic and overall clinical significance.

For `CCOC(=O)CN[C@@H](C(=O)N1CC[C@H]1C(=O)NCc1ccc(/C(N)=N\O)cc1)C1CCCCC1` [ximelagatran, EtOOC—CH2—(R)Cgl-Aze-Pab-OH], the “symptoms accompanying ALAT increases” value (longer-term treatment) was “mainly asymptomatic”, the “patients exhibiting levels of alanine aminotransferase (ALAT) 3-fold or more above the upper limit of normal (≧3×ULN)” value (longer-term treatment (>35 days), 1.2% in the comparator groups) was 7.9% and the “reversibility of ALAT increases” value (regardless of whether treatment was continued or discontinued) was “reversible in most patients”. For the same compound, the “time of occurrence of the increase in ALAT values” (usually, from start of treatment) was no more than 6 months.
